Test results as given in ChEMBL document CHEMBL1139272, “Beyond the MEK-pocket: can current MEK kinase inhibitors be utilized to synthesize novel type III NCKIs? Does the MEK-pocket exist in kinases other than MEK?” (Bioorg Med Chem Lett, 2009).

What was measured:
[1] = Binding affinity to MEK
[2] = molecular target: T1, Aurora kinase A (Homo sapiens) (UniProt O14965); experiment: Binding affinity to Aurora A at 10 uM
T1 sequence (whole entry): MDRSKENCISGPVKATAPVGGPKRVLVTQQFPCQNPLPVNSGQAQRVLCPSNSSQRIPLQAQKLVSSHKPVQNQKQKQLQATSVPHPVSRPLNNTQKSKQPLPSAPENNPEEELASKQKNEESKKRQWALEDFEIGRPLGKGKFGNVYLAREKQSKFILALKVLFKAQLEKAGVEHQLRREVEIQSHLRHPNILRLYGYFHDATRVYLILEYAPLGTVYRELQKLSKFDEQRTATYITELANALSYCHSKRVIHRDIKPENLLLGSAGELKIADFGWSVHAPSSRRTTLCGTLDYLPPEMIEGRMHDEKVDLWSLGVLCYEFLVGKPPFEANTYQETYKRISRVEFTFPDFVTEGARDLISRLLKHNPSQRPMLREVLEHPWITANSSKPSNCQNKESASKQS

[3] = Binding affinity to GSK3 at 10 uM
[4] = Binding affinity to NEK at 10 uM
[5] = molecular target: Serine/threonine-protein kinase PAK 4 (Homo sapiens) (UniProt O96013); experiment: Binding affinity to PAK4 at 10 uM
[6] = molecular target: T2, Serine/threonine-protein kinase Sgk1 (Homo sapiens) (UniProt O00141); experiment: Binding affinity to SGK at 10 uM
T2 sequence (whole entry): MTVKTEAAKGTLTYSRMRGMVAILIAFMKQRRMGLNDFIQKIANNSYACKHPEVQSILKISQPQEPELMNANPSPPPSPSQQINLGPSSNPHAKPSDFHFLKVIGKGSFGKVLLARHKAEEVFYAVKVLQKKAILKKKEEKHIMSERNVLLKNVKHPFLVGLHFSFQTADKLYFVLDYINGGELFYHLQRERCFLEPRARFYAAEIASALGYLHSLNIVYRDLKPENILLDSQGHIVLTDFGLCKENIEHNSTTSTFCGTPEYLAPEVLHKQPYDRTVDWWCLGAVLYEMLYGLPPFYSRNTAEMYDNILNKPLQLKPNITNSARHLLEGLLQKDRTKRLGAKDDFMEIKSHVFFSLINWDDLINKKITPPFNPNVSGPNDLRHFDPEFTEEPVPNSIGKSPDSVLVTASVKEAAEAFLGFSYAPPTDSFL

[7] = molecular target: MAP kinase-activated protein kinase 2 (Homo sapiens) (UniProt P49137); experiment: Binding affinity to MK2 at 10 uM
Chain of MAP kinase-activated protein kinase 2 (Homo sapiens) (P49137 whole entry, looked up): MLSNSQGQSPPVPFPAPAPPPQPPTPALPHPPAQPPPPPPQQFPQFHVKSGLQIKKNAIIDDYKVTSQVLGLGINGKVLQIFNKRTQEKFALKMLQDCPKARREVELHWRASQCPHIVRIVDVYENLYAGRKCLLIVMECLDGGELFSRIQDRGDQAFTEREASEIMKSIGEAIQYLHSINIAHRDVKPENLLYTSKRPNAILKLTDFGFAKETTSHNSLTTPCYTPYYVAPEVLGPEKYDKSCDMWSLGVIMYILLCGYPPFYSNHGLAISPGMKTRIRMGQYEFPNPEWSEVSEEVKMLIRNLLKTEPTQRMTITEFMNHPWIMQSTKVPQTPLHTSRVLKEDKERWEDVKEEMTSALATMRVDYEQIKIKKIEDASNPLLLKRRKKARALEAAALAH

[8] = Binding affinity to PKC at 10 uM
[9] = molecular target: High affinity nerve growth factor receptor (Homo sapiens) (UniProt P04629); experiment: Binding affinity to TrkA at 10 uM
Chain of High affinity nerve growth factor receptor (Homo sapiens) (P04629 33-796 limits assumed): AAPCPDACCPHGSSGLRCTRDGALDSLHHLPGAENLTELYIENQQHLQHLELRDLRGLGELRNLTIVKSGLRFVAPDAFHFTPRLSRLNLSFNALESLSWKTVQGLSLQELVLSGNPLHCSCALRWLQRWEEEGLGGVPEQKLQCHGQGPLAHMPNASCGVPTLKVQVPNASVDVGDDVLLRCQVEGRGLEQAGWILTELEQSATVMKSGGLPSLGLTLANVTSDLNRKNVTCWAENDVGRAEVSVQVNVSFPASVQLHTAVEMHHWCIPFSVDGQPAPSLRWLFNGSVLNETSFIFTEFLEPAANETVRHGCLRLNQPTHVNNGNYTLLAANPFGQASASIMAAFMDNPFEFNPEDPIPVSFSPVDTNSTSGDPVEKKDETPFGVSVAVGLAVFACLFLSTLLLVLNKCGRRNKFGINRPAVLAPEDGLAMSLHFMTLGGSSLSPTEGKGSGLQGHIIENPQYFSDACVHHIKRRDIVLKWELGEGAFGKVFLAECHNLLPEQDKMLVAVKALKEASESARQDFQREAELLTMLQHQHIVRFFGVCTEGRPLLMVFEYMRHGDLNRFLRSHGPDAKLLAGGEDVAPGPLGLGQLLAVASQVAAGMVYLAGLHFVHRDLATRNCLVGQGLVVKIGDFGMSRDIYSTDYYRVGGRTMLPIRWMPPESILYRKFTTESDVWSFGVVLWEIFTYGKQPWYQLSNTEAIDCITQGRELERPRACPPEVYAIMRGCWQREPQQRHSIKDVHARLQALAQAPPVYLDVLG

[10] = Binding affinity to p38 at 10 uM
Ephrin type-A receptor 2 [11] = molecular target: T3, Ephrin type-A receptor 2 (Homo sapiens, UniProt P29317); experiment: Binding affinity to EPHA2 at 10 uM
[12] = molecular target: Vascular endothelial growth factor receptor 2 (Homo sapiens, UniProt P35968); experiment: Binding affinity to VEGFR2
Ephrin type-A receptor 2 [13] = molecular target: T3, Ephrin type-A receptor 2; experiment: Binding affinity to ECK
[14] = molecular target: Tyrosine-protein kinase Lck (Homo sapiens, UniProt P06239)
[15] = molecular target: Fibroblast growth factor receptor 1 (Homo sapiens, UniProt P11362); experiment: Binding affinity to FGFR1
Chain of Fibroblast growth factor receptor 1 (P11362 whole entry): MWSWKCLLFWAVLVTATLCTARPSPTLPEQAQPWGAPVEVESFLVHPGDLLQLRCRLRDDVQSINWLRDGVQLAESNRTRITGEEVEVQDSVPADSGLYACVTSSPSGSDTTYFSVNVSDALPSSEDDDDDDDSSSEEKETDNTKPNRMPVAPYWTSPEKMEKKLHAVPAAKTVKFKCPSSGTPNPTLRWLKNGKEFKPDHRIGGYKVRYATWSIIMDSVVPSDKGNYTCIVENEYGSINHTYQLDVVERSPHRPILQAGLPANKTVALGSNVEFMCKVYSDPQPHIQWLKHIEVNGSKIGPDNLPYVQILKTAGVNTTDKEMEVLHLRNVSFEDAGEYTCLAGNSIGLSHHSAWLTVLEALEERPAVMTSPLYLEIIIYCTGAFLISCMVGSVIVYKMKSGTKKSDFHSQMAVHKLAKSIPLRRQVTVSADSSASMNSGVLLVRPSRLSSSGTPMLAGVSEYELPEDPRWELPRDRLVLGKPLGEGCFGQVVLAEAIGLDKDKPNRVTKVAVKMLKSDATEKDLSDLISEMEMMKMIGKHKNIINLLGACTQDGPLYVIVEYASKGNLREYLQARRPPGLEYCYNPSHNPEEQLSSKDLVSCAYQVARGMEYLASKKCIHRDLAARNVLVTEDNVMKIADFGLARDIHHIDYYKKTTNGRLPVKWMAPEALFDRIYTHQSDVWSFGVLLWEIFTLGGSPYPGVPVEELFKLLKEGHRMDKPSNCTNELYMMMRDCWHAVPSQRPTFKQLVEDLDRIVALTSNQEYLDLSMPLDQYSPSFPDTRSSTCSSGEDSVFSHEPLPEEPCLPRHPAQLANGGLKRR

[16] = molecular target: Tyrosine-protein kinase BTK (Homo sapiens, UniProt Q06187)
Chain of Tyrosine-protein kinase BTK (Q06187 whole entry): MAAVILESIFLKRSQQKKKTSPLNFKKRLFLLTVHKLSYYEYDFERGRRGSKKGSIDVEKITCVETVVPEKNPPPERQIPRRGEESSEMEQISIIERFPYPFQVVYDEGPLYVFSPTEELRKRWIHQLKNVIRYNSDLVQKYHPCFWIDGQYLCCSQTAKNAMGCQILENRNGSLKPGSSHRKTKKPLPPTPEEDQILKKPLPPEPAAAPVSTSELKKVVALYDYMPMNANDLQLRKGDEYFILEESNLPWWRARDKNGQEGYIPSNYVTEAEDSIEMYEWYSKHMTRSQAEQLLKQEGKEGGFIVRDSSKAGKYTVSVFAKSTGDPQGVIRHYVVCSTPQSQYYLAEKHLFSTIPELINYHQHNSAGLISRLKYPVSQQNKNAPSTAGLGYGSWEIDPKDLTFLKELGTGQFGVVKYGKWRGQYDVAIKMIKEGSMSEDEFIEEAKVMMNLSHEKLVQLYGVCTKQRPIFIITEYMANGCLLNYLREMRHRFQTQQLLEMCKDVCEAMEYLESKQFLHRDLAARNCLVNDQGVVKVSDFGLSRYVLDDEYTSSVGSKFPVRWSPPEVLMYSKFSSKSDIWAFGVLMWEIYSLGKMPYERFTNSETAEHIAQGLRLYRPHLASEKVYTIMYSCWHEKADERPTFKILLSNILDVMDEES

Aurora kinase A = molecular target: T4, Aurora kinase A (Homo sapiens, UniProt O14965); experiment: Binding affinity to Aurora A
T4 sequence (O14965 whole entry): T1 sequence (whole entry)

[17] = molecular target: Dual specificity protein kinase CLK1 (Homo sapiens, UniProt P49759); experiment: Binding affinity to CLK1
Chain of Dual specificity protein kinase CLK1 (P49759 whole entry): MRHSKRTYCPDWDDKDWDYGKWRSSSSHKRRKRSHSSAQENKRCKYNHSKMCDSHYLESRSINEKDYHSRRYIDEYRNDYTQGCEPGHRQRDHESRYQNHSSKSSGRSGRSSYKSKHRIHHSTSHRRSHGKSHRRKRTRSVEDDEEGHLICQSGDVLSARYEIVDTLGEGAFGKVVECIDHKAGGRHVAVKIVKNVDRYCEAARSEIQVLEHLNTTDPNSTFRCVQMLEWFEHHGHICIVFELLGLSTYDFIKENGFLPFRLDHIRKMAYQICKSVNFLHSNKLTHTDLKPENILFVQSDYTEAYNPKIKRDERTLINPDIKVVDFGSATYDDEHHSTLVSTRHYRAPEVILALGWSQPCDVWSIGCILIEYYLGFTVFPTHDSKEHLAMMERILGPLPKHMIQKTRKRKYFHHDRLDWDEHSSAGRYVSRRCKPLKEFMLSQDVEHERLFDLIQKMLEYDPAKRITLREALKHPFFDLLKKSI

[18] = molecular target: Tyrosine-protein kinase ABL1 (Homo sapiens, UniProt P00519); experiment: Binding affinity to ABL
[19] = molecular target: Mitogen-activated protein kinase kinase kinase 9 (Homo sapiens, UniProt P80192); experiment: Binding affinity to MAP3K9
Chain of Mitogen-activated protein kinase kinase kinase 9 (P80192 whole entry): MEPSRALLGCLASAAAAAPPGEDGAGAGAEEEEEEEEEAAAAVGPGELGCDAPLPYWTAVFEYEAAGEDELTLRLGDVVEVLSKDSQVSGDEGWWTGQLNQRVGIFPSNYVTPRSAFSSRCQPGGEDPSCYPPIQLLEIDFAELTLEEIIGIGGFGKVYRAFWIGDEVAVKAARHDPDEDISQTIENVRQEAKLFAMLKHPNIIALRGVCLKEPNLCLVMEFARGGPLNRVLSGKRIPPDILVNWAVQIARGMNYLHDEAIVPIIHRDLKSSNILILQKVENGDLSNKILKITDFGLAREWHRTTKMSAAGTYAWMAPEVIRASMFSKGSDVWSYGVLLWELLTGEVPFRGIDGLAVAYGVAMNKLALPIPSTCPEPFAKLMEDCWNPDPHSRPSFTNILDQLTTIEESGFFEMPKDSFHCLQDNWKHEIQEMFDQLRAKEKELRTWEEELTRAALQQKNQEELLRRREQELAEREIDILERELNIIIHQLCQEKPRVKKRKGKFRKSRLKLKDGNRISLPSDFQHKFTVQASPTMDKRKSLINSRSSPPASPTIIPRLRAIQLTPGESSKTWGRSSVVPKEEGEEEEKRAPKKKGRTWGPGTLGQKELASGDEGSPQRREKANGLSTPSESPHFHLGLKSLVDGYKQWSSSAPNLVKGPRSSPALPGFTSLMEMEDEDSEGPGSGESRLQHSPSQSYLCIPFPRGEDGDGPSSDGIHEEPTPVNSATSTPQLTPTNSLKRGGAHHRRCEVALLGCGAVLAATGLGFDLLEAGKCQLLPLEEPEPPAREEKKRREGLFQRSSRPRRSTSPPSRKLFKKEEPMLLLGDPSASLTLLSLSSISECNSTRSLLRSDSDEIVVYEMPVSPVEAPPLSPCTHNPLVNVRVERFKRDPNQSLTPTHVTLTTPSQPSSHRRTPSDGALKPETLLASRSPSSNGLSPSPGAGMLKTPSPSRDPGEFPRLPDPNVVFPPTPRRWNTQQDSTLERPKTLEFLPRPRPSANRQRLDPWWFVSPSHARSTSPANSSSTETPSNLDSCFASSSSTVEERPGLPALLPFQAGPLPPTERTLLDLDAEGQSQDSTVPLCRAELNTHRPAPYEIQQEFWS

[20] = molecular target: Proto-oncogene tyrosine-protein kinase Src (Homo sapiens, UniProt P12931); experiment: Binding affinity to SRC
[21] = Binding affinity to p38
[22] = molecular target: Protein kinase C beta type (Homo sapiens, UniProt P05771); experiment: Binding affinity to PKC beta2
Chain of Protein kinase C beta type (P05771 whole entry): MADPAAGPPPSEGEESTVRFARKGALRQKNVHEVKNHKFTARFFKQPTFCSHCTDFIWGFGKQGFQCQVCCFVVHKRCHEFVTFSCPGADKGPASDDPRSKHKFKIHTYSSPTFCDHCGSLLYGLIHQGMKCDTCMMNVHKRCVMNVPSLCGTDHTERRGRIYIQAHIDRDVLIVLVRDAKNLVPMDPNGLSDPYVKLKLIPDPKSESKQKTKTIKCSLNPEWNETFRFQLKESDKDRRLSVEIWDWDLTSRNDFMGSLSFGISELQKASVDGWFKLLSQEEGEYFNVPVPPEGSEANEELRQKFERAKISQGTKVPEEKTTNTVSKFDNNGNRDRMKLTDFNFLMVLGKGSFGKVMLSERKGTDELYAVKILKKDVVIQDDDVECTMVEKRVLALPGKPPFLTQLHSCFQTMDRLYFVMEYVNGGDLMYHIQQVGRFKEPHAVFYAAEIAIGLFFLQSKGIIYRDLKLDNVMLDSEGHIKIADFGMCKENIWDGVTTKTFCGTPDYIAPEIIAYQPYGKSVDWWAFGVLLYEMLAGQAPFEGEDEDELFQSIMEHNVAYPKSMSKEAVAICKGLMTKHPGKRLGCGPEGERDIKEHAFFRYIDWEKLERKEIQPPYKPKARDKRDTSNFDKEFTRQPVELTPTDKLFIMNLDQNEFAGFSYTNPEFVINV

[23] = molecular target: T5, Serine/threonine-protein kinase 3 (Homo sapiens, UniProt Q13188)
T5 sequence (Q13188 whole entry): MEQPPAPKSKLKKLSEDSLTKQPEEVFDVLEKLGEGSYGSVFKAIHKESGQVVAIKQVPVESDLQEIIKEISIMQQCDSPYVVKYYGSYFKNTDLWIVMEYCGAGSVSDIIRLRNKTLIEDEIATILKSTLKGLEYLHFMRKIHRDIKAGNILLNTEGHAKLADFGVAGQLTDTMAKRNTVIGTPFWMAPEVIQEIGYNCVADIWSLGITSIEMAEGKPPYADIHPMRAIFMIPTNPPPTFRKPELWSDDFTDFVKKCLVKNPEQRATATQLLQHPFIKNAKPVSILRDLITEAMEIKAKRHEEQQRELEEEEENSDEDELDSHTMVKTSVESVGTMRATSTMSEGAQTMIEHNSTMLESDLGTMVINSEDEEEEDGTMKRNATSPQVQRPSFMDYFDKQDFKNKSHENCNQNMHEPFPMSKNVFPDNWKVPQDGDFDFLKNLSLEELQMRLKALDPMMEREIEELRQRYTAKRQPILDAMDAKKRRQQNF

inhibition [2]	inhibition [3]	inhibition [4]	inhibition [5]	inhibition [6]	inhibition [7]	inhibition [8]	inhibition [9]	inhibition [10]	inhibition (Ephrin type-A receptor 2 [11])	IC50 [12]	IC50 (Ephrin type-A receptor 2 [13])	IC50 [15]	IC50 (Aurora kinase A)	IC50 [17]	IC50 [18]	IC50 [20]	IC50 [21]	IC50 [22]	Compound	further results
21%	36%	20%	28%	60%	28%	27%	0%	19%	22%	–	–	–	–	–	–	–	–	–	O=C(O)c1ccc(CO/N=C/c2cc(C(=O)NOCCO)c(Nc3ccc(I)cc3F)c(F)c2F)o1	–
5%	5%	0%	0%	0%	2%	1%	0%	1%	9%	–	–	–	–	–	–	–	–	–	O=C(NOCCO)c1cc(/C=N/OCCO)c(F)c(F)c1Nc1ccc(I)cc1F	–
29%	22%	25%	33%	39%	18%	25%	1%	4%	37%	–	–	–	–	–	–	–	–	–	O=C(O)CCCO/N=C/c1cc(C(=O)NOCCO)c(Nc2ccc(I)cc2F)c(F)c1F	–
2%	25%	13%	22%	0%	5%	0%	27%	5%	13%	–	–	–	–	–	–	–	–	–	O=C(NOCCO)c1cc(COCCO)c(F)c(F)c1Nc1ccc(I)cc1F	–
0%	16%	0%	0%	0%	1%	10%	0%	31%	7%	–	–	–	–	–	–	–	–	–	COCCCNC(=O)N/N=C/c1cc(C(=O)NOCCO)c(Nc2ccc(I)cc2F)c(F)c1F	–

Continued, molecule first:

Compound	inhibition [2]	inhibition [3]	inhibition [4]	inhibition [5]	inhibition [6]	inhibition [7]	inhibition [8]	inhibition [9]	inhibition [10]	inhibition (Ephrin type-A receptor 2 [11])	IC50 [12]	IC50 (Ephrin type-A receptor 2 [13])	IC50 [15]	IC50 (Aurora kinase A)	IC50 [17]	IC50 [18]	IC50 [20]	IC50 [21]	IC50 [22]	further results
O=C(O)c1ccc(F)c(F)c1Nc1ccc(I)cc1Cl [ZAPNOMETINIB]	–	–	–	–	–	–	–	–	–	–	–	–	–	–	–	–	–	–	–	IC50 [1]: 0.00573 µM
CS(=O)(=O)c1ccc(CNCc2cc(C(=O)O)c(Nc3ccc(I)cc3F)c(F)c2F)cc1	–	–	–	–	–	–	–	–	–	–	18 µM	> 30 µM	> 30 µM	1 µM	> 30 µM	> 30 µM	> 30 µM	> 30 µM	> 30 µM	IC50 [14]: > 30 µM; IC50 [16]: > 30 µM; IC50 [19]: 5 µM
NC(=O)C[C@H](N)C(=O)NCc1cc(C(=O)O)c(Nc2ccc(I)cc2F)c(F)c1F	–	–	–	–	–	–	–	–	–	–	> 30 µM	> 30 µM	> 30 µM	2 µM	> 30 µM	> 30 µM	4 µM	> 30 µM	2 µM	IC50 [14]: > 30 µM; IC50 [16]: > 30 µM; IC50 [19]: > 30 µM; IC50 [23]: 6 µM
O=C(N/N=C/c1cc(C(=O)O)c(Nc2ccc(I)cc2F)c(F)c1F)c1ccc(CO)o1	–	–	–	–	–	–	–	–	–	–	3 µM	3 µM	2 µM	3 µM	15 µM	0.3 µM	0.1 µM	5 µM	> 30 µM	IC50 [19]: 4 µM; IC50 [23]: > 30 µM
O=C(CS(=O)(=O)c1ccc(Cl)cc1)N/N=C/c1cc(C(=O)O)c(Nc2ccc(I)cc2F)c(F)c1F	–	–	–	–	–	–	–	–	–	–	> 30 µM	> 30 µM	> 30 µM	4 µM	3 µM	4 µM	3 µM	10 µM	> 30 µM	IC50 [16]: > 30 µM
Cc1cc(I)ccc1Nc1c(C(=O)O)ccc(F)c1F	–	–	–	–	–	–	–	–	–	–	–	–	–	–	–	–	–	–	–	IC50 [1]: 0.011 µM
O=C(NOCCO)c1ccc(F)c(F)c1Nc1ccc(I)cc1F	11%	0%	2%	10%	0%	9%	9%	14%	5%	9%	–	–	–	–	–	–	–	–	–	–
